From PMC10488051, “Screening, Synthesis and Biochemical Characterization of SARS-CoV-2 Protease Inhibitors” (International Journal of Molecular Sciences, 2023)
Where “and” joins values, the source holds several entries; their conditions need not be identical. Equal values may be shown once. Entries after “also recorded” stand apart in the source; their conditions may differ. Read-outs that look alike come from different tables or passages of the source.

Assays:
SARS-CoV-2 PL^pro = SARS-CoV-2 PL^pro (Severe acute respiratory syndrome coronavirus 2, UniProt P0DTD1); assay: PL^pro enzymatic inhibition assay (FRET-based, Z-RLRGG-AMC substrate); format: biochemical; details: for Kd: enzymatic inhibition assay, 25 °C, pH 7.5
SARS-CoV-2 M^pro = SARS-CoV-2 M^pro (Severe acute respiratory syndrome coronavirus 2, UniProt P0DTD1); assay: biochemical; format: biochemical
PL^pro = PL^pro (Severe acute respiratory syndrome coronavirus 2, UniProt P0DTD1); format: binding; details: for Covalent binding to PL^pro by mass spectrometry: no reducing agents, 1 h incubation at room temperature
M^pro [1] = molecular target: T1, M^pro (Severe acute respiratory syndrome coronavirus 2, UniProt P0DTD1); details: cited from earlier work
M^pro [2] = molecular target: T1, M^pro; format: binding
wt PL^pro = wt PL^pro (Severe acute respiratory syndrome coronavirus 2, UniProt P0DTD1)
[3] = Table 1 thiazole series, uncertainty approx. 1.8-fold of Kd
[4] = Table 2 disulfide compounds, PL^pro dialyzed to avoid DTT
[5] = Table 2 disulfide compounds, enzymatic inhibition assay, 25 °C, pH 7.5

**Q.** What does the source list for Cc1ccc(N(CCC(=O)O)c2nc(-c3ccc(C#N)cc3)c(/C=N\Nc3ccccc3)s2)cc1 [Compound 27c]?
**A.** Kd (SARS-CoV-2 PL^pro; [3]): 15 µM; Kd (SARS-CoV-2 M^pro): > 200 µM

**Q.** Which Kd (SARS-CoV-2 PL^pro; [4]) does the source give for NNC(=O)CCNc1ccccc1SSc1ccccc1NCCC(=O)NN [Compound 34] here?
**A.** 0.43 µM

**Q.** And the “Fold more potent for PL^pro than M^pro” value (SARS-CoV-2 PL^pro; ratio of Kd values)?
**A.** eight times

**Q.** And the Kd (SARS-CoV-2 M^pro; [5])?
**A.** 3.5 µM

**Q.** What about the “Covalent binding to PL^pro by mass spectrometry” value (PL^pro) of the same molecule?
**A.** covalent binding of compound 34 to PLpro

**Q.** With CC(=O)c1sc(N(CCC(=O)O)c2cccc3ccccc23)nc1C [Compound 19] as the molecule, how does the Kd (SARS-CoV-2 PL^pro; [3]) read?
**A.** ≥ 50 µM

**Q.** And the Kd (SARS-CoV-2 M^pro)?
**A.** > 200 µM

**Q.** For Nc1ccc(N(CCC(=O)O)c2nc(-c3ccc(C(F)(F)F)cc3)cs2)cc1 [Compound 30d], which Kd (SARS-CoV-2 PL^pro; [3]) is on record?
**A.** ≥ 50 µM

**Q.** What about the Kd (SARS-CoV-2 M^pro) of the same molecule?
**A.** > 200 µM

**Q.** What does the source list for Nc1ccc(N(CCC(=O)O)c2nc(-c3ccc(Cl)cc3)cs2)cc1 [Compound 30a]?
**A.** Kd (SARS-CoV-2 PL^pro; [3]): ≥ 50 µM; Kd (SARS-CoV-2 M^pro): > 200 µM

**Q.** With CCN(CC)C(=S)SSC(=S)N(CC)CC [disulfiram] as the molecule, how does the “Covalent interaction with cysteine residues of M^pro” value (M^pro [1]) read?
**A.** interact covalently with cysteine residues of M^pro

**Q.** With O=C(O)CCN(c1nc(CO)cs1)c1cccc2ccccc12 [Compound 10] as the molecule, how does the Kd (SARS-CoV-2 PL^pro; [3]) read?
**A.** 35 µM

**Q.** What about the Kd (SARS-CoV-2 M^pro) of the same molecule?
**A.** > 200 µM

**Q.** With Cc1nc(N(CCC(=O)O)c2cccc3ccccc23)sc1C(=O)O [Compound 18] as the molecule, how does the Kd (SARS-CoV-2 PL^pro; [3]) read?
**A.** ≥ 50 µM

**Q.** What about the Kd (SARS-CoV-2 M^pro) of the same molecule?
**A.** > 200 µM

**Q.** Which Kd (SARS-CoV-2 PL^pro; [3]) does the source give for O=C(O)CCN(C1=NC(=O)C(=Cc2cccs2)S1)c1cccc2ccccc12 [Compound 16] here?
**A.** ≥ 50 µM

**Q.** And the Kd (SARS-CoV-2 M^pro)?
**A.** > 200 µM

**Q.** With Cc1ccc(N(CCC(=O)O)c2nc(-c3ccc(Cl)cc3)c(/C=N\Nc3ccccc3)s2)cc1 [Compound 27a] as the molecule, how does the Kd (SARS-CoV-2 PL^pro; [3]) read?
**A.** 35 µM

**Q.** And the Kd (SARS-CoV-2 M^pro)?
**A.** > 200 µM

**Q.** Which Kd (SARS-CoV-2 PL^pro; [3]) does the source give for N#Cc1ccc(-c2csc(N(CCC(=O)O)c3cccc4ccccc34)n2)cc1 [Compound 6e] here?
**A.** 20 µM

**Q.** And the Kd (SARS-CoV-2 M^pro)?
**A.** > 200 µM

**Q.** For O=C(O)CCN(c1nc(C(=O)/C=C/c2ccccc2)c(C(=O)/C=C/c2ccccc2)s1)c1cccc2ccccc12 [Compound 31], which Kd (SARS-CoV-2 PL^pro; [3]) is on record?
**A.** ≥ 50 µM

**Q.** What about the Kd (SARS-CoV-2 M^pro) of the same molecule?
**A.** ≥ 50 µM

**Q.** With O=C(O)CCNc1ccccc1SSc1ccccc1NCCC(=O)O [Compound 33] as the molecule, how does the Kd (SARS-CoV-2 PL^pro; [4]) read?
**A.** 2 µM

**Q.** What about the Kd (SARS-CoV-2 M^pro; [5]) of the same molecule?
**A.** > 200 µM

**Q.** What does the source list for O=C(O)CCN(c1nc(-c2ccc(Cl)cc2)cs1)c1cccc2ccccc12 [Compound 6b]?
**A.** Kd (SARS-CoV-2 PL^pro; [3]): ≥ 50 µM; Kd (SARS-CoV-2 M^pro): > 200 µM

**Q.** With O=C(O)CCN(c1nccs1)c1cccc2ccccc12 [Compound 3, 3-[naphthalene-1-yl(1,3-thiazol-2-yl)amino]propanoic acid] as the molecule, how does the Kd (SARS-CoV-2 PL^pro; [3]) read?
**A.** 14 µM

**Q.** And the Kd (SARS-CoV-2 M^pro)?
**A.** 25 µM

**Q.** With O=C(CNc1ccccc1SSc1ccccc1NCC(=O)c1ccccc1)c1ccccc1 [Compound 38] as the molecule, how does the Kd (SARS-CoV-2 PL^pro; [4]) read?
**A.** 1.9 µM

**Q.** What about the Kd (SARS-CoV-2 M^pro; [5]) of the same molecule?
**A.** > 200 µM

**Q.** Which results are given for Cc1nc(N(CCC(=O)O)c2cccc3ccccc23)sc1C(=O)/C=C/c1ccccc1 [Compound 21a]?
**A.** Kd (SARS-CoV-2 PL^pro; [3]): 110 µM; Kd (SARS-CoV-2 M^pro): > 200 µM

**Q.** Which Kd (SARS-CoV-2 PL^pro; [3]) does the source give for CCOC(=O)c1sc(N(CCC(=O)O)c2cccc3ccccc23)nc1C [Compound 20] here?
**A.** 29 µM

**Q.** What about the Kd (SARS-CoV-2 M^pro) of the same molecule?
**A.** > 200 µM

**Q.** For COC(=O)C=C1SC(N(CCC(=O)O)c2cccc3ccccc23)=NC1=O [Compound 17], which Kd (SARS-CoV-2 PL^pro; [3]) is on record?
**A.** > 200 µM

**Q.** And the Kd (SARS-CoV-2 M^pro)?
**A.** > 200 µM

**Q.** Which Kd (SARS-CoV-2 PL^pro; [3]) does the source give for Cc1ccc(N(CCC(=O)O)c2nc(C)c(C(=O)C=Cc3ccc(Cl)cc3)s2)cc1 [Compound 25b] here?
**A.** 66 µM

**Q.** And the Kd (SARS-CoV-2 M^pro)?
**A.** > 200 µM

**Q.** Which results are given for O=C(O)CCN(c1nc(-c2ccc([N+](=O)[O-])cc2)cs1)c1cccc2ccccc12 [Compound 6d]?
**A.** Kd (SARS-CoV-2 PL^pro; [3]): 25 µM; Kd (SARS-CoV-2 M^pro): 26 µM

**Q.** Which “Fold improvement of PL^pro affinity over compound 12” value (SARS-CoV-2 PL^pro) does the source give for Cc1ccc(N(CCC(=O)O)c2nc(CNc3ccccc3)cs2)cc1 [Compound 26] here?
**A.** 2 fold

**Q.** What about the Kd (SARS-CoV-2 PL^pro; [3]) of the same molecule?
**A.** 16 µM

**Q.** What about the Kd (SARS-CoV-2 M^pro) of the same molecule?
**A.** > 200 µM

**Q.** Which Kd (SARS-CoV-2 PL^pro; [3]) does the source give for Nc1ccc(N(CCC(=O)O)c2nc(-c3ccc(F)cc3)cs2)cc1 [Compound 30b] here?
**A.** ≥ 50 µM

**Q.** What about the Kd (SARS-CoV-2 M^pro) of the same molecule?
**A.** > 200 µM

**Q.** Which results are given for Cc1ccc(N(CCC(=O)O)c2nc(-c3ccc(F)cc3)c(/C=N\Nc3ccccc3)s2)cc1 [Compound 27b]?
**A.** Kd (SARS-CoV-2 PL^pro; [3]): ≥ 50 µM; Kd (SARS-CoV-2 M^pro): > 200 µM

**Q.** With O=C(O)CCN(C1=NC(=O)C(=Cc2ccc(Br)cc2)S1)c1cccc2ccccc12 [Compound 13a] as the molecule, how does the Kd (SARS-CoV-2 PL^pro; [3]) read?
**A.** 24 µM

**Q.** What about the Kd (SARS-CoV-2 M^pro) of the same molecule?
**A.** 6.5 µM

**Q.** What about the “Fold more potent for M^pro inhibition than PL^pro” value (SARS-CoV-2 M^pro; ratio of Kd values) of the same molecule?
**A.** 3.7 fold

**Q.** Which Kd (SARS-CoV-2 PL^pro; [3]) does the source give for O=C(O)CCN(c1nc(CCl)cs1)c1cccc2ccccc12 [Compound 9] here?
**A.** ≥ 50 µM

**Q.** What about the Kd (SARS-CoV-2 M^pro) of the same molecule?
**A.** > 200 µM

**Q.** With Nc1ccccc1SSc1ccccc1N [Compound 32] as the molecule, how does the Kd (SARS-CoV-2 PL^pro; [4]) read?
**A.** 0.54 µM

**Q.** And the Kd (SARS-CoV-2 M^pro; [5])?
**A.** 2.8 µM

**Q.** And the “Covalent binding to PL^pro by mass spectrometry” value (PL^pro)?
**A.** covalent binding of 32 with PL^pro and M^pro was confirmed

**Q.** What about the “Mass shift of PL^pro-compound adduct (major peak)” value (PL^pro; protein/ligand molar ratio 1:5 for 32) of the same molecule?
**A.** 123.13 Da

**Q.** And the “Covalent binding to M^pro by mass spectrometry” value (M^pro [2]; no reducing agents, 1 h incubation at room temperature)?
**A.** covalent binding of 32 with PL^pro and M^pro was confirmed

**Q.** And the “Mass shift of M^pro-compound adduct (major peak)” value (M^pro [2]; protein/ligand molar ratio 1:10)?
**A.** 245.73 Da and 245.7 Da

**Q.** What about the “Thermal effect (Tm) on wild-type PL^pro” value (wt PL^pro) of the same molecule?
**A.** strongly destabilized the native PL^pro; also recorded: thermal destabilization effect (Tm decrease) induced by 32 is seen only for wild-type PL^pro

**Q.** Which Kd (SARS-CoV-2 PL^pro; [3]) does the source give for O=C(O)CCN(C1=NC(=O)C(=Cc2ccc(Cl)cc2)S1)c1cccc2ccccc12 [Compound 13b] here?
**A.** ≥ 50 µM

**Q.** And the Kd (SARS-CoV-2 M^pro)?
**A.** > 200 µM
